{
  "source": "patent US8252737B2",
  "about": "“Antimicrobial peptides and methods of use” (priority 2004, dated 2012)",
  "key": {"human erythrocytes": {"tested_on": "human erythrocytes", "experiment": "Hemolytic activity (MHC), Protocol B, 18 hours", "conditions": "for MHC (μg/ml) hRBC: maximal peptide concentration with no hemolysis after 18 hours", "method": "In order to evaluate the biological activities of the D-enantiomeric peptides, namely D-NAL and D-NKD, the hemolytic activity of the peptides against human erythrocytes was determined as the maximal peptide concentration that produces no hemolysis after 18 hours of incubation at 37° C.\n(§1) Measurement of Hemolytic Activity—Protocol A: Peptide samples were added to 1% human erythrocytes in phosphate buffered saline (0.08M NaCl; 0.043M Na2PO4; 0.011M KH2PO4) and reactions were incubated at 37° C. for 12 hours in microtiter plates. Peptide samples were diluted 2 fold in order to determine the concentration that produced no hemolysis. […] Hemoglobin release was determined spectrophotometrically at 562 nm. The hemolytic titer was the highest 2-fold dilution of the peptide that still caused release of hemoglobin from erythrocytes. The control for no release of hemoglobin was a sample of 1% erythrocytes without any peptide added. […] Peptide samples were diluted 2 fold in order to determine the concentration that produced no hemolysis. […] Hemoglobin release was determined spectrophotometrically at 570 nm. The hemolytic titer was the highest 2-fold dilution of the peptide that still caused release of hemoglobin from erythrocytes. The control for no release of hemoglobin was a sample of 1% erythrocytes without any peptide added."}, "human red blood cells": {"tested_on": "human red blood cells", "experiment": "Hemolysis time study (0-8 hours, 8-500 μg/ml)", "method": "The percent hemolysis of cells was determined spectrophotometrically by comparison with the complete hemolysis of cells in water.\nas §1, with “Measurement of Hemolytic Activity—Protocol A: Peptide samples were added to 1% human erythrocytes in phosphate buffered saline (0.08M NaCl; 0.043M Na2PO4; 0.011M KH2PO4) and reactions were incubated at 37° C. for 12 hours in microtiter plates.” left out"}, "[1]": {"tested_on": "Pseudomonas aeruginosa strains", "conditions": "for MIC PAK: strain PAK; for MIC PAO 1: strain PAO 1", "method": "Pseudomonas aeruginosa strains used in this study are a diverse group of clinical isolates from different places in the world. […] The geometric mean MIC values from six Pseudomonas aeruginosa strains were calculated to provide an overall evaluation of antimicrobial activity of these peptides against Pseudomonas aeruginosa. Fold improvement was calculated by comparing the geometric mean MIC value of each peptide to that of the parent peptide V681.\n(§2) Measurement of Antimicrobial Activity—Minimal inhibitory concentrations (MICs) were determined using a standard microtiter dilution method in LB (Luria-Bertani) no-salt medium (10 g of tryptone and 5 g of yeast extract per liter). Briefly, cells were grown overnight at 37° C. in LB and diluted in the same medium. […] Plates were incubated at 37° C. for 24 hours and MICs determined as the lowest peptide concentration that inhibited growth. Alternatively, minimal inhibitory concentrations were determined using a standard microtiter dilution method in a Mueller-Hinton (MH) medium. Briefly, cells were grown overnight at 37° C. in MH broth and diluted in the same medium. […] Plates were incubated at 37° C. for 24 hours and MICs determined as the lowest peptide concentration that inhibited growth. However, for MIC determination of Pseudomonas aeruginosa clinical isolates, brain heart infusion (BH1) medium was used instead of MH broth. In addition, the bacteria were diluted to a final inoculum of 1×10^6 colony-forming units/ml.\nFor the Leu-substituted peptides, the hemolytic activity against human erythrocytes was determined as the maximal peptide concentration that produces no hemolysis after 18 hours of incubation at 37° C. Antimicrobial activity of the peptides was determined on a diverse group of Pseudomonas aeruginosa clinical isolates. […] The geometric mean MIC values from six Pseudomonas strains in Table 14 were calculated to provide an overall evaluation of antimicrobial activity of the peptides with different hydrophobicities."}, "gram-negative bacteria": {"tested_on": "gram-negative bacteria", "experiment": "MIC, microtiter dilution, Gram-negative bacteria (geometric mean of 6 strains)", "type": "cell-based", "conditions": "geometric mean of MIC values from all 6 Gram-negative strains of Table 11", "method": "(§3) The geometric mean MIC values from 6 microbial strains in this table were calculated to provide an overall evaluation of antimicrobial activity against gram-negative bacteria.\nIn Table 11, geometric mean MIC was calculated to provide an overall view of antimicrobial activity of the peptides against Gram-negative bacteria and was also used to calculate the therapeutic index.\nas §2"}, "[2]": {"method": "as §3, §2"}, "[3]": {"tested_on": "E. coli (UB 1005 wt and DC2 abs)", "conditions": "for MIC (μg/ml) E. coli C500 abs: antibiotic sensitive strain; for MIC (μg/ml) E. coli C498 wt: wild-type lab strain", "method": "as §3, §2"}, "P. aeruginosa H187 wt": {"tested_on": "P. aeruginosa H187 wt", "method": "as §3, §2"}, "S. typhimurium C610 abs": {"tested_on": "S. typhimurium C610 abs", "method": "as §3, §2"}, "C. albicans": {"tested_on": "C. albicans", "conditions": "fungus", "method": "as §2"}, "E. faecalis": {"tested_on": "E. faecalis", "method": "as §2"}, "gram-positive bacteria": {"tested_on": "gram-positive bacteria", "method": "as §2"}, "[4]": {"tested_on": "Staphylococcus epidermidis"}},
  "note": "Where two headings read alike, the source gives them in different places.",
  "data": [
    {"smiles": "CC[C@@H](C)[C@@H](NC(=O)[C@@H](C)NC(=O)[C@@H](CCCCN)NC(=O)[C@@H](CC(C)C)NC(=O)[C@@H](C)NC(=O)[C@H](NC(=O)[C@@H](Cc1c[nH]cn1)NC(=O)[C@@H](CC(C)C)NC(=O)[C@H](NC(=O)[C@H](NC(=O)[C@@H](CCCCN)NC(=O)[C@H](C)NC(=O)[C@@H](C)NC(=O)[C@@H](CO)NC(=O)[C@@H](CCCCN)NC(=O)[C@@H](Cc1ccccc1)NC(=O)[C@H](NC(=O)[C@@H](CCCCN)NC(=O)[C@@H](CC(C)C)NC(=O)[C@@H](Cc1ccccc1)NC(=O)[C@@H](CO)NC(=O)[C@@H](CCCCN)NC(=O)[C@@H](Cc1c[nH]c2ccccc12)NC(=O)[C@@H](CCCCN)NC(C)=O)[C@H](C)O)[C@H](C)O)C(C)C)[C@H](C)O)C(=O)N[C@H](CO)C(=O)N[C@H](CO)C(N)=O", "note": "[D-NAL]", "values": [
      {"measurement": "Hemolytic activity Fold", "setting": "human erythrocytes; fold decrease in hemolytic activity compared to V681, 18 hours", "result": 4},
      {"measurement": "Hemolytic activity MHC", "setting": "human erythrocytes; maximal peptide concentration producing no hemolysis after 18 hours, 37° C.", "result": 31.3, "unit": "µg/mL"},
      {"measurement": "MHC (μg/ml) hRBC", "setting": "human erythrocytes; Table 11", "result": 31.3, "unit": "µg/mL"},
      {"measurement": "MHC (μg/ml) hRBC", "setting": "human erythrocytes; Table 12", "result": 31.3, "unit": "µg/mL"},
      {"measurement": "hemolysis of human red blood cells", "setting": "human red blood cells; 500 μg/ml, after 1 hour incubation", "result": "approximately 40%"},
      {"measurement": "hemolysis of human red blood cells", "setting": "human red blood cells; peptide concentration of 32 μg/ml", "result": "negligible hemolysis"},
      {"measurement": "MIC GM", "setting": "[1]; geometric mean of six Pseudomonas aeruginosa clinical isolates", "result": 13.9, "unit": "µg/mL"},
      {"measurement": "MIC CP 204", "setting": "[1]; strain CP 204", "result": 7.8, "unit": "µg/mL"},
      {"measurement": "MIC M 2", "setting": "[1]; strain M 2", "result": 15.6, "unit": "µg/mL"},
      {"measurement": "MIC PA 14", "setting": "[1]; strain PA 14", "result": 7.8, "unit": "µg/mL"},
      {"measurement": "MIC PAK", "setting": "[1]", "result": 31.3, "unit": "µg/mL"},
      {"measurement": "MIC PAO 1", "setting": "[1]", "result": 7.8, "unit": "µg/mL"},
      {"measurement": "MIC WR 5", "setting": "[1]; strain WR 5", "result": 31.3, "unit": "µg/mL"},
      {"measurement": "MIC (μg/ml) GM", "setting": "gram-negative bacteria", "result": 3.9, "unit": "µg/mL"},
      {"measurement": "MIC (μg/ml) St C587 wt", "setting": "[2]; Salmonella typhimurium wild-type lab strain", "result": 12.5, "unit": "µg/mL"},
      {"measurement": "MIC (μg/ml) E. coli C500 abs", "setting": "[3]", "result": 3.1, "unit": "µg/mL"},
      {"measurement": "MIC (μg/ml) E. coli C498 wt", "setting": "[3]", "result": 3.1, "unit": "µg/mL"},
      {"measurement": "MIC (μg/ml) Pa H188 abs", "setting": "P. aeruginosa H187 wt; Pseudomonas aeruginosa antibiotic sensitive strain", "result": 3.1, "unit": "µg/mL"},
      {"measurement": "MIC (μg/ml) Pa H187 wt", "setting": "P. aeruginosa H187 wt; Pseudomonas aeruginosa wild-type lab strain", "result": 3.1, "unit": "µg/mL"},
      {"measurement": "MIC (μg/ml) St C610 abs", "setting": "S. typhimurium C610 abs; Salmonella typhimurium antibiotic sensitive strain", "result": 3.1, "unit": "µg/mL"},
      {"measurement": "MIC (μg/ml) C. albicans", "setting": "C. albicans", "result": 12.5, "unit": "µg/mL"},
      {"measurement": "MIC (μg/ml) E. faecalis C625 wt", "setting": "E. faecalis; wild type strain", "result": 12.5, "unit": "µg/mL"},
      {"measurement": "MIC (μg/ml) GM", "setting": "gram-positive bacteria; geometric mean of MIC values from all 6 gram-positive strains of Table 12", "result": 2.8, "unit": "µg/mL"},
      {"measurement": "MIC (μg/ml) S. aureus 622 wt", "setting": "Staphylococcus aureus", "result": 3.1, "unit": "µg/mL"},
      {"measurement": "MIC (μg/ml) S. aureus 623 methR", "setting": "Staphylococcus aureus", "result": 3.1, "unit": "µg/mL"},
      {"measurement": "MIC (μg/ml) S. epidermidis C621 wt", "setting": "[4]", "result": 1.6, "unit": "µg/mL"},
      {"measurement": "MIC (μg/ml) B. subtilis C971 wt", "setting": "Bacillus subtilis", "result": 1.6, "unit": "µg/mL"},
      {"measurement": "MIC (μg/ml) C. xerosis C875 wt", "setting": "Corynebacterium xerosis", "result": 1.6, "unit": "µg/mL"}
    ]},
    {"smiles": "CC[C@@H](C)[C@@H](NC(=O)[C@@H](C)NC(=O)[C@@H](CCCCN)NC(=O)[C@@H](CC(C)C)NC(=O)[C@@H](C)NC(=O)[C@H](NC(=O)[C@@H](Cc1c[nH]cn1)NC(=O)[C@@H](CC(C)C)NC(=O)[C@H](NC(=O)[C@H](NC(=O)[C@@H](CCCCN)NC(=O)[C@H](NC(=O)[C@@H](C)NC(=O)[C@@H](CO)NC(=O)[C@@H](CCCCN)NC(=O)[C@@H](Cc1ccccc1)NC(=O)[C@H](NC(=O)[C@@H](CCCCN)NC(=O)[C@@H](CC(C)C)NC(=O)[C@@H](Cc1ccccc1)NC(=O)[C@@H](CO)NC(=O)[C@@H](CCCCN)NC(=O)[C@@H](Cc1c[nH]c2ccccc12)NC(=O)[C@@H](CCCCN)NC(C)=O)[C@H](C)O)C(C)C)[C@H](C)O)C(C)C)[C@H](C)O)C(=O)N[C@H](CO)C(=O)N[C@H](CO)C(N)=O", "note": "[D-V681]", "values": [
      {"measurement": "MHC (μg/ml) hRBC", "setting": "human erythrocytes; Table 11", "result": 7.8, "unit": "µg/mL"},
      {"measurement": "MHC (μg/ml) hRBC", "setting": "human erythrocytes; Table 12", "result": 7.8, "unit": "µg/mL"},
      {"measurement": "Hemolytic activity MHC", "setting": "human erythrocytes; red cells of human, 18 h", "result": 7.8, "unit": "µg/mL"},
      {"measurement": "MIC PAK", "setting": "[1]", "result": 31.3, "unit": "µg/mL"},
      {"measurement": "MIC PAO 1", "setting": "[1]", "result": 15.6, "unit": "µg/mL"},
      {"measurement": "MIC (μg/ml) GM", "setting": "gram-negative bacteria", "result": 6.3, "unit": "µg/mL"},
      {"measurement": "MIC (μg/ml) St C587 wt", "setting": "[2]; C610 abs", "result": 12.5, "unit": "µg/mL"},
      {"measurement": "MIC (μg/ml) E. coli C500 abs", "setting": "[3]", "result": 3.1, "unit": "µg/mL"},
      {"measurement": "MIC (μg/ml) E. coli C498 wt", "setting": "[3]", "result": 6.3, "unit": "µg/mL"},
      {"measurement": "MIC (μg/ml) Pa H188 abs", "setting": "P. aeruginosa H187 wt", "result": 6.3, "unit": "µg/mL"},
      {"measurement": "MIC (μg/ml) Pa H187 wt", "setting": "P. aeruginosa H187 wt; H187 wt", "result": 6.3, "unit": "µg/mL"},
      {"measurement": "MIC (μg/ml) St C610 abs", "setting": "S. typhimurium C610 abs; C610 abs", "result": 6.3, "unit": "µg/mL"},
      {"measurement": "MIC (μg/ml) E. faecalis C625 wt", "setting": "E. faecalis", "result": 6.3, "unit": "µg/mL"},
      {"measurement": "MIC (μg/ml) GM", "setting": "gram-positive bacteria", "result": 3.5, "unit": "µg/mL"},
      {"measurement": "MIC (μg/ml) S. aureus 623 methR", "setting": "Staphylococcus aureus; methicillin-resistant clinical strain", "result": 6.3, "unit": "µg/mL"},
      {"measurement": "MIC (μg/ml) S. aureus 622 wt", "setting": "Staphylococcus aureus; wild type strain", "result": 6.3, "unit": "µg/mL"},
      {"measurement": "MIC (μg/ml) S. epidermidis C621 wt", "setting": "[4]", "result": 1.6, "unit": "µg/mL"},
      {"measurement": "MIC (μg/ml) B. subtilis C971 wt", "setting": "Bacillus subtilis", "result": 1.6, "unit": "µg/mL"},
      {"measurement": "MIC (μg/ml) C. xerosis C875 wt", "setting": "Corynebacterium xerosis", "result": 3.1, "unit": "µg/mL"}
    ]}
  ]
}
